Experimental data published in PubChem BioAssay (NCI).
Several values for one entry are separate records, joined by “and”; a condition that tells them apart may be missing. Equal values may be shown once.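 In this assay, cells in 96-well plates receive the compound at five concentrations for 48 hours. Endpoints are linearly interpolated between the surrounding concentrations. GI50 is the concentration that inhibits growth by half. The concentration for full growth arrest is given as TGI.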

Columns and labels:
Assay in all cases: NCI-60 cell line screen, 48 h
CCRF-CEM leukemia = tested on: CCRF-CEM leukemia
HT29 colon = tested on: HT29 colon
IGROV1 ovarian = tested on: IGROV1 ovarian
NCI-H226 lung = tested on: NCI-H226 lung
NCI-H522 lung = tested on: NCI-H522 lung
NCI/ADR-RES ovarian = tested on: NCI/ADR-RES ovarian
OVCAR-4 ovarian = tested on: OVCAR-4 ovarian
SW-620 colon = tested on: SW-620 colon
UACC-62 melanoma = tested on: UACC-62 melanoma
CAKI-1 renal = tested on: CAKI-1 renal

| Structure (SMILES) | GI50 (CCRF-CEM leukemia) | TGI (CCRF-CEM leukemia) | GI50 (HT29 colon) | TGI (HT29 colon) | GI50 (IGROV1 ovarian) | TGI (IGROV1 ovarian) | GI50 (NCI-H226 lung) | TGI (NCI-H226 lung) | GI50 (NCI-H522 lung) | TGI (NCI-H522 lung) | GI50 (NCI/ADR-RES ovarian) | TGI (NCI/ADR-RES ovarian) | GI50 (OVCAR-4 ovarian) | TGI (OVCAR-4 ovarian) | GI50 (SW-620 colon) | TGI (SW-620 colon) | GI50 (UACC-62 melanoma) | TGI (UACC-62 melanoma) | TGI (CAKI-1 renal) | GI50 (CAKI-1 renal) |
| --- | --- | --- | --- | --- | --- | --- | --- | --- | --- | --- | --- | --- | --- | --- | --- | --- | --- | --- | --- | --- |
| O=C(/C(=C/c1ccc([N+](=O)[O-])cc1)SCc1ccccc1)c1ccc(Cl)cc1 | 2.12 µM | > 100 µM | 2.54 µM | 5.75 µM | 2.86 µM | 11.6 µM | 4.53 µM | 34.1 µM | 3.96 µM | 10.5 µM | 3.38 µM | 17.7 µM | 3.24 µM | 13.3 µM | 1.83 µM | 4.15 µM | 2.56 µM | 9.12 µM | – | – |
| CCCCCC[C@@H]1CCC2C(CO)[C@@H](O)CC[C@@H]2C1 (some centres undefined) | – | 79.9 µM | – | 34.1 µM | – | 34.7 µM | – | 39.7 µM | – | 31.5 µM | – | – | – | 30.6 µM | – | 39.2 µM | – | 38.6 µM | – | – |
| C=CC[C@H](C[C@H](C[C@H](C[C@H](C[C@H](C[C@H](C[C@H](C[C@H](C[C@H](C[C@H](CCCCC)OC)OC)OC)OC)OC)OC)OC)OC)OC)OC | – | > 100 µM | – | > 100 µM | – | > 100 µM | – | > 100 µM | – | > 100 µM | – | – | – | > 100 µM | – | > 100 µM | – | > 100 µM | > 100 µM | – |
| Cc1ccc(-n2c3nc(=O)[nH]c(=O)c-3cc3cc([N+](=O)[O-])ccc32)cc1 | 4.67 µM | > 100 µM | 12 µM | 37.2 µM | – | – | 24.6 µM | 86 µM | 33.2 µM | 77.5 µM | 10.7 µM | 34.4 µM | 24.1 µM | 98.8 µM | 4.71 µM | > 100 µM | 12.1 µM | 29.8 µM | 39.2 µM | 10.4 µM |
| C/C(=N/Nc1ccc([N+](=O)[O-])cc1[N+](=O)[O-])C(CC(C(=O)NCc1ccccc1)/C(C)=N\Nc1ccc([N+](=O)[O-])cc1[N+](=O)[O-])C(=O)NCc1ccccc1 (centres undefined) | – | – | – | 18.5 µM | – | 31 µM | – | 25.8 µM | – | – | – | – | – | 5.59 µM | – | 24.4 µM | – | 28.4 µM | 20.4 µM | – |
| O=C1C=CC(=O)c2nc3c(cc21)CCC3 | – | 25.6 µM | – | > 100 µM | – | 34 µM | – | – | – | 25.4 µM | – | – | – | 29.7 µM | – | 31.1 µM | – | 33 µM | 31.4 µM | – |
| Cn1ccc2c3c(Oc4ccc(NC(N)=O)cc4)ccnc3ccc21 | – | – | > 100 µM | > 100 µM | > 100 µM | > 100 µM | > 100 µM | > 100 µM | > 100 µM | > 100 µM | > 100 µM | > 100 µM | > 100 µM | > 100 µM | > 100 µM | > 100 µM | > 100 µM | > 100 µM | > 100 µM | > 100 µM |
| COc1cc(-c2ccc3cc(OC)c(OC)c(OC)c3c2)cc(OC)c1OC | > 100 µM | > 100 µM | – | – | 40.4 µM | > 100 µM | > 100 µM | > 100 µM | 9.54 µM | > 100 µM | 7.91 µM | > 100 µM | > 100 µM | > 100 µM | – | – | 29.6 µM | > 100 µM | > 100 µM | > 100 µM |
| CCOC(=O)C1=C(C)N(c2ccc(F)cc2F)[C@]2(C#N)C(O)=C(Cl)C(Cl)=C(O)[C@]12C#N | 28.8 µM | > 100 µM | > 100 µM | > 100 µM | > 100 µM | > 100 µM | > 100 µM | > 100 µM | > 100 µM | > 100 µM | 5.61 µM | > 100 µM | > 100 µM | > 100 µM | > 100 µM | > 100 µM | – | – | > 100 µM | > 100 µM |
| C=C(C)CCOC(c1ccccc1)(c1ccccc1)c1ccccc1 | – | > 100 µM | – | 70.6 µM | – | > 100 µM | – | 97.8 µM | – | 76.3 µM | – | – | – | > 100 µM | – | > 100 µM | – | > 100 µM | > 100 µM | – |
| O=C(/C=C/c1ccc([N+](=O)[O-])cc1)c1ccc(NCc2nc3ccccc3[nH]2)cc1 | – | 6.16 µM | – | 12.3 µM | – | 18.1 µM | – | – | – | 11.9 µM | – | – | – | 27.8 µM | – | 6.19 µM | – | 26 µM | 21.2 µM | – |
| N#C/C(=C\c1cccc(Cl)c1Cl)c1ccccc1 | – | > 46.4 µM | – | > 100 µM | – | 55.2 µM | – | > 100 µM | – | > 100 µM | – | – | – | > 85.6 µM | – | > 72.4 µM | – | > 100 µM | 77.7 µM | – |
| COc1cc(C2CC(C)(O)Oc3cc4c(cc32)OCO4)cc(OC)c1OC (centres undefined) | – | > 100 µM | – | > 100 µM | – | > 100 µM | – | – | – | 0.661 µM | – | – | – | > 100 µM | – | > 100 µM | – | > 100 µM | > 100 µM | – |
| O=C1CCC2(c3ccc(Cl)cc3)Nc3ccncc3N12 (centres undefined) | – | > 10 µM | – | > 10 µM | – | > 10 µM | – | > 10 µM | – | > 10 µM | – | > 10 µM | – | > 10 µM | – | > 10 µM | – | > 10 µM | – | – |
| Cc1cc2c(C)[nH]nc2c(C(=O)O)c1C | – | > 100 µM | – | > 100 µM | – | > 100 µM | – | – | – | – | – | – | – | > 100 µM | – | > 100 µM | – | > 100 µM | > 100 µM | – |
| COc1ccc(C)cc1-c1cc(Sc2ccccc2)c(-c2cc(C)ccc2OC)o1 | – | > 31.6 µM | – | > 31.6 µM | – | > 31.6 µM | – | > 31.6 µM | – | > 31.6 µM | – | – | – | > 31.6 µM | – | > 31.6 µM | – | > 31.6 µM | > 31.6 µM | – |
| CCCCCCCCCCCCCCCC[N+](C)(C)Cc1ccccc1 | – | – | 1.01 µM | 2.36 µM | 0.209 µM | 0.533 µM | – | – | – | – | 14.4 µM and 12 µM | 45.1 µM and 42 µM | 1.59 µM | 4.55 µM | – | – | 1.36 µM | 2.98 µM | 35.6 µM and 21.7 µM | 9.52 µM and 3.74 µM |
| CC(C)(C)c1cc2c(O)c3cccc4c(=O)c5cccc6c5-c(c34)c2c(c1)c6=O | – | > 100 µM | – | > 100 µM | – | > 100 µM | – | > 100 µM | – | > 100 µM | – | – | – | > 100 µM | – | > 100 µM | – | > 100 µM | > 100 µM | – |
| O=S(=O)(c1ccccc1)N1CCN(S(=O)(=O)c2ccccc2)c2ccccc21 | – | – | – | > 100 µM | – | > 100 µM | – | > 100 µM | – | > 100 µM | – | > 100 µM | – | > 100 µM | – | > 100 µM | – | > 100 µM | > 100 µM | – |
